Results reported in patent US20040210184A1, “Effect of electric field and ultrasound for transdermal drug delivery” (Massachusetts Institute of Technology, priority 1995, published 2004).
One block for each molecule: values may come before it.

Columns and labels:
[1] = human, 1 mM, pH 7.4
Protocol: Full thickness of human cadaver skin (obtained from local hospitals) was heat stripped by immersion in 60° C. water for two minutes followed by the removal of the epidermis. The skin was then stored in a humidified chamber (95% relative humidity) at 4° C. The heat-stripped human epidermis was placed in a custom-made side-by-side permeation chamber, skin area of 0.64 cm^2, designed to adapt an ultrasound transducer at the donor side. The donor compartment was filled with a 1 mM solution of calcein (MW 623, electric charge—4; Sigma Chemicals) (CA) and 1 mM sulphorhodamine (MW 607, electric charge—1; Sigma Chemical) (SR) in 150 mM Phosphate Buffer Saline (PBS; Sigma Chemicals).
The ultrasound probe was inserted into the donor compartment. […]
The fluorometer was set up for dual wavelength measurements (excitation wavelength=488 nm, emission wavelength=515 nm (calcein), and excitation wavelength =586 nm, emission wavelength=607 nm (sulphorhodamine)). […] Transdermal calcein and sulphorhodamine flux was calculated from the fluorescence readings by taking into account parameters such as flow rate, receiver compartment volume, and fluorometer caveat volume. The effluent from the receptor compartment was pumped through a spectrofluorometer (Fluorolog-II-system F112AI SPEX-industries, Edison, N.J.) where the fluorescence of calcein and sulphorhodamine was separately measured twice every minute. […]

[2] = Stability of the molecules under electroporating conditions and temperature, measured by fluorescence; assay type: physicochemical; conditions: 1 mM solutions under electroporating conditions
Protocol: In order to assess the stability of these molecules during electroporation, calcein and sulphorhodamine solutions (1 mM each) were exposed to electroporating conditions similar to those used in this study. No difference between the intensity of their fluorescence before and after exposure to electric fields could be detected. In addition, these molecules are stable up to a temperature of 100° C. (measured in terms of fluorescence).

[3] = ethanol as chemical enhancer; cited from earlier work
[4] = assay type: in vitro ADME
Source text: Passive experiments without ultrasound with polyethylene glycol 200 dilaurate (PEG), isopropyl myristate (IM), and glycerol trioleate (GT) result in corticosterone flux enhancement values of only 2, 5, and 0.8, relative to the passive flux from PBS alone. […] These passive flux enhancements were due to (1) the increased corticosterone solubility in the enhancers, and (2) interactions of linoleic acid with the skin. Specifically, linoleic acid increased the corticosterone permeability by nearly 20-fold over that from 50% ethanol alone. […] Ultrasound combined with 50% ethanol produces a 2-fold increase in corticosterone transport above the passive case, but increase by 14-fold the transport from LA/Ethanol.

enhancement: amount transported in the presence of ultrasound-electric field pulsing to that in the presence of electric field pulsing alone [1]: 2 | difference in fluorescence intensity before and after exposure to electric fields [2]: No difference
Compound: O=C(O)CN(CC(=O)O)Cc1cc2c(cc1O)Oc1cc(O)c(CN(CC(=O)O)CC(=O)O)cc1C21OC(=O)c2ccccc21 [calcein]

difference in fluorescence intensity before and after exposure to electric fields [2]: No difference
Compound: O=S(=O)([O-])c1cc(S(=O)(=O)O)ccc1C1=c2cc3c4c(c2Oc2c1cc1c5c2CCCN5CCC1)CCC[N+]=4CCC3 [sulphorhodamine]

Compound: C[C@]12CC[C@@H]3c4ccc(O)cc4CC[C@H]3[C@@H]1CC[C@@H]2O [estradiol]
flux increase by ethanol [3]: 140 fold

flux [4]: 0.16 mg/cm^2/hr | flux relative to that from PBS alone [4]: 13,000 fold | flux with ultrasound relative to the passive flux from the same enhancers [4]: 1.3-5.0 | permeability increase by linoleic acid over that from 50% ethanol alone [4]: ~20 fold
Compound: C[C@]12C[C@H](O)[C@H]3[C@@H](CCC4=CC(=O)CC[C@@]43C)[C@@H]1CC[C@@H]2C(=O)CO [corticosterone]
